ChEMBL document CHEMBL1150464, “Glycosyl derivatives of NK2 tachykinin receptor antagonists” (Bioorg Med Chem Lett, 1996)
Active and inactive are the calls of the source. The rule behind the calls is not given here. Peptide text beside a SMILES is read from it. * marks the point of attachment. βGlc = OC[C@H]1O[C@@H](*)[C@H](O)[C@@H](O)[C@@H]1O

Assays:
Type in all cases: functional
[1] = biological target: T1, Substance-K receptor (Mesocricetus auratus) (UniProt P51144); assay: Compound was tested for its antagonistic activity against tachykinin NK2 receptor in hamster trachea (HT).
T1 sequence (whole entry): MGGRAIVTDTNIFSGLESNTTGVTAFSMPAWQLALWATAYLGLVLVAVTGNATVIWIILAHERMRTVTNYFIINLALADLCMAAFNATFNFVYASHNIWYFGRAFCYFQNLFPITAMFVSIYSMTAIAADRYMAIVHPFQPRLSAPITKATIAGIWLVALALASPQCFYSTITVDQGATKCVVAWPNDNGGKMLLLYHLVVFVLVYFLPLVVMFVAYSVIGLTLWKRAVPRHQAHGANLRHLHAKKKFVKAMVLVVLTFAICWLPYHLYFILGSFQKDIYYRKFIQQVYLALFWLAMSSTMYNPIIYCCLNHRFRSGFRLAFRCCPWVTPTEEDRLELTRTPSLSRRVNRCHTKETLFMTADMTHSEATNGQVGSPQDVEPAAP

[2] = biological target: T2, Substance-K receptor (Oryctolagus cuniculus) (UniProt P79218); assay: Compound was tested for its antagonistic activity against tachykinin NK2 receptor in isolated rabbit pulmonary artery (RPA).
T2 sequence (whole entry): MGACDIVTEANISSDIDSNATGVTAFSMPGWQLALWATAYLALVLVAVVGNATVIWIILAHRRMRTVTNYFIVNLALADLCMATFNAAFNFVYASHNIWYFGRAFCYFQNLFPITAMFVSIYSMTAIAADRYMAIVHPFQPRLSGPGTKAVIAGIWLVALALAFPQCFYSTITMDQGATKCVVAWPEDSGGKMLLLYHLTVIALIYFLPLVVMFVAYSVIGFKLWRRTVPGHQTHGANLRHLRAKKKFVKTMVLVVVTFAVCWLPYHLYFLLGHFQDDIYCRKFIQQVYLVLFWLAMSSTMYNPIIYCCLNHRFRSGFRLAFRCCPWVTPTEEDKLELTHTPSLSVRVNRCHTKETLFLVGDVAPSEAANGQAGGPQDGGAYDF

[3] = biological target: T1, Substance-K receptor (Mesocricetus auratus); assay: Compound was tested for its antagonistic activity against tachykinin NK2 receptor in hamster trachea (HT); inactive up to 10 uM

| pKB [1] | pKB [2] | pKB [3] | Structure (SMILES) |
| --- | --- | --- | --- |
| 5.6 | 8.1 | – | CC(C)[C@H](NC(=O)[C@H](Cc1c[nH]c2ccccc12)NC(=O)[C@H](Cc1ccc(O)cc1)NC(=O)[C@@H](N)CC(=O)O)C(=O)N[C@H](Cc1c[nH]c2ccccc12)C(=O)N[C@@H](Cc1c[nH]c2ccccc12)C(=O)N[C@@H](CCCCN)C(N)=O |
| < 5 | 7.3 | – | CC(C)[C@H](NC(=O)[C@H](Cc1c[nH]c2ccccc12)NC(=O)[C@H](Cc1ccc(O)cc1)NC(=O)[C@H](CC(=O)O)NC(=O)[C@@H](N)CO[C@@H]1O[C@H](CO)[C@@H](O)[C@H](O)[C@H]1O)C(=O)N[C@@H](Cc1c[nH]c2ccccc12)C(=O)N[C@H](Cc1c[nH]c2ccccc12)C(=O)N[C@@H](CCCCN)C(N)=O |
| – | 6.2 | inactive | CC(C)[C@H](NC(=O)[C@H](Cc1c[nH]c2ccccc12)NC(=O)[C@H](Cc1ccc(O[C@@H]2O[C@H](CO)[C@@H](O)[C@H](O)[C@H]2O)cc1)NC(=O)[C@@H](N)CC(=O)O)C(=O)N[C@@H](Cc1c[nH]c2ccccc12)C(=O)N[C@H](Cc1c[nH]c2ccccc12)C(=O)N[C@@H](CCCCN)C(N)=O |
| – | < 5 | inactive | CC(C)[C@H](NC(=O)[C@H](Cc1c[nH]c2ccccc12)NC(=O)[C@H](Cc1ccc(O[C@@H]2O[C@H](CO)[C@@H](O)[C@H](O)[C@H]2O)cc1)NC(=O)[C@@H](N)CC(=O)O)C(=O)N[C@@H](Cc1c[nH]c2ccccc12)C(N)=O (H-DY(βGlc)WVW-NH2) |
| < 6 | < 6 | – | CC(C)[C@H](NC(=O)C(Cc1c[nH]c2ccccc12)NC(=O)[C@H](Cc1ccc(O)cc1)NC(=O)[C@H](CC(=O)O)NC(=O)[C@@H](N)CO[C@@H]1O[C@H](CO)[C@@H](O)[C@H](O)[C@H]1O)C(=O)NC(Cc1c[nH]c2ccccc12)C(N)=O (stereo in doubt) |
| 5.4 | 6.3 | – | CC(C)[C@H](NC(=O)[C@@H](Cc1c[nH]c2ccccc12)NC(=O)[C@H](Cc1ccc(O)cc1)NC(=O)[C@@H](N)CC(=O)O)C(=O)N[C@H](Cc1c[nH]c2ccccc12)C(N)=O |
| < 5 | 7.2 | – | CC(C)[C@H](NC(=O)[C@H](Cc1c[nH]c2ccccc12)NC(=O)[C@H](Cc1ccc(O)cc1)NC(=O)[C@H](CC(=O)O)NC(=O)[C@@H](N)Cc1ccc(O[C@@H]2O[C@H](CO)[C@@H](O)[C@H](O)[C@H]2O)cc1)C(=O)N[C@@H](Cc1c[nH]c2ccccc12)C(=O)N[C@H](Cc1c[nH]c2ccccc12)C(=O)N[C@@H](CCCCN)C(N)=O |
